Laboratory results as given in EP4775570A1, “CYP11A1 INHIBITOR, PREPARATION METHOD THEREFOR AND USE THEREOF” (Shenzhen Zhongge Biological Technology Co., Ltd., priority 2023, dated 2025).

Legend:
[1] = PK study, intravenous and oral administration, plasma LC-MS/MS; type: in vivo; conditions: both sexes, 5 mg/kg, oral administration of 5 mpk, species not given (ICR mice or SD Rat); for bioavailability: read-out: bioavailability (F)
Description: ICR mice (male/female, total 6 animals) were assigned to two groups for oral administration and intravenous administration, respectively, with 3 mice in each group. Before administration, the animals were fasted for 10-14 hours, with water available ad lib.
SD Rat (male/female, total 6 animals) were assigned to two groups for oral administration and intravenous administration, respectively, with 3 mice in each group. Before administration, the animals were fasted for 10-14 hours, with water available ad lib.
The compounds to be tested were weighed out in accordance with intended dosage, formulated with vehicles (5% DMSO + 10% Solutol + 85% physiological saline) to dosage form at appropriate concentrations (administered intravenously and orally in rats or mice at a volume of 5 mL/kg and 10 mL/kg, respectively). The dosage form for intravenous injection is a clear solution, and the dosage form for oral administration is a clear solution or homogenous suspension.
Administration to animals was conducted through intravenous injection and oral gavage, and blood samples were collected at 0.033, 0.083, 0.25, 0.5, 1, 2, 4, 8, and 24 hours after intravenous injection, or at 0.083, 0.25, 0.5, 1, 2, 4, 6, 8, and 24 hours after oral administration. After centrifugation of whole blood samples at 4°C and 6,800g for 6 minutes, the upper layers of plasma were stored at -80°C refrigerator before analysis.
The DMSO stock solutions of the substance to be tested were diluted with methanol or acetonitrile solution to serial working solutions and added to blank plasma matrix to formulate samples for standard curve and quality control. An appropriate volume of plasma sample was added with appropriate fold of methanol or acetonitrile containing internal standards, according to response, for protein precipitation. After centrifugation of all samples at 4°C and 18,000g for 10 min, appropriate volumes of supernatant were taken for LC-MS/MS analysis.
Plasma drug concentration-time curves were plotted in accordance with tested concentrations, and pharmacokinetic parameters were calculated based on non-compartmental model using WinNonlin software, including half-life (T1/2), area under the drug concentration-time curve (AUC0-t), clearance rate (CL), steady-state distribution volume (Vss), bioavailability (F), etc.

[2] = system: VCaP castration-resistant prostate cancer subcutaneous transplant tumor model; test: In vivo pharmacodynamic study in a VCaP castration-resistant prostate cancer subcutaneous transplant tumor model; design: species or system SCID-Beige mice; conditions: 30mg/kg BID oral + prednisone 0.6mg/kg QD, castrated tumor-bearing mice, 32 days
Description: Animals: experimental male SCID-Beige mice, 6-8-weeks old or 18-22g, provided by Beijing Vital River Laboratory Animal Technology Co., Ltd.
Experiment procedures: all experimental animals were kept within specific-pathogen-free animal barrier facility, and allowed 3 days of adaptation before the experiment began. VCaP tumor cells were in vitro cultured as monolayer in DMEM complete medium (with 10% fetal bovine serum and 1% penicillin & streptomycin) at 37°C in air containing 5% CO2. Tumor cells were routinely passaged 2-3 times a week, and cells in exponential growth phase were collected and counted for tumor cell inoculation. 10x10^6 VCaP tumor cells were resuspended in 0.1ml PBS, thoroughly mixed with 0.1ml matrigel, and then inoculated subcutaneously on the right flank of each mouse to form a tumor. The tumor-bearing mice were allowed to develop to an average tumor volume of around 200mm^3 and underwent castration surgery. The tumor volumes of all mice were measured after one week of castration surgery. Suitable tumor-bearing mice were selected and assigned randomly into the following groups: blank control group, prednisone (0.6mg/kg, QD) group, abiraterone (33.73mg/kg, QD) + prednisone (0.6mg/kg, QD) group, ODM-208 (30mg/kg, BID) + prednisone (0.6mg/kg, QD) group, and the compound of the present disclosure (30mg/kg, BID) + prednisone (0.6mg/kg, QD) group. Animals in blank control group were orally administered with vehicles (0.5%MC+0.5%Tween80 and 0.5%CMCNa), and the animals in other groups were orally administered with corresponding compound. The experiment lasted for 32 days, and during the experiment, the animals in each group were measured for tumor volume and body weight twice a week.

[3] = system: testosterone, progesterone, corticosterone; test: LC-MS detection of testosterone, progesterone and corticosterone in mouse tumors and adrenal glands; type: in vivo; conditions: mouse tumors and adrenal glands, VCaP model
Excerpt: • Mouse tumors were homogenized using PBS in a 1:5 ratio (tumor weight (g): PBS volume (mL), w/v); • Mouse adrenal glands were homogenized using PBS in a 1:10 ratio (adrenal gland weight (g): PBS volume (mL), w/v); • Standard sample: testosterone (LGC, C17322500), progesterone (MCE, HY-N0437), adrenal ketone (MCE, HY-B1618), and standard solution of test substance.
Experiment procedures: since the three markers, i.e., testosterone, progesterone, and adrenal ketone, are all endogenous substances and present in the blank matrix as well, PBS was alternatively used as matrix in the production of the standard curve.
Testosterone: multiple reaction monitoring (MRM) method was used for detecting the concentrations of testosterone in mouse tumors and adrenal glands. Mass spectrum: AB Sciex Triple Quad 6500+; liquid chromatography: Shimadzu 40A, column: Waters XBridge BEH C18 2.5 µm 2.1*50mm, testosterone ion pair: 289.4/97.2. Both tumor and adrenal tissues were treated with methanol as precipitant and tolbutamide as internal standard for sample pretreatment, with linear range in 50-50,000pg/mL.
Progesterone and corticosterone: multi-reaction detection method (MRM) was used for detecting the concentrations of progesterone and corticosterone in mouse tumors and adrenal glands. Mass spectrum: AB Sciex Triple Quad 6500+; liquid chromatography: Shimadzu 40A, column: Waters XSelect HSS T3 2.5 µm 2.1*50mm, progesterone ion pair: 315.4/97.2, adrenone ion pair: 347.4/121.3. For tumor tissues, acetonitrile was used as precipitant and propranolol diclofenac as internal standard for sample pretreatment, with linear ranges in 0.05-10 ng/mL of progesterone and 0.10-20 ng/mL of corticosterone. For adrenal tissues, methanol was used as precipitant and propranolol diclofenac as internal standard for sample pretreatment, with linear ranges in 5-2,500 ng/mL of progesterone and 5-2,500 ng/mL of corticosterone.

AUC [1] [ng·h/mL] | Cmax [1] [ng/mL] | bioavailability [1] [%] | half-life ([1]; read-out: half-life (t1/2) (converted)) [h] | Structure (SMILES) | tumor inhibition rate TGI [2] [%] | secretion of testosterone, progesterone and corticosterone in tumors and adrenal glands (in words) [3]
1310 | 807 | 59 | 1.8 | CS(=O)(=O)N1CCC(COc2coc(CN3Cc4ccccc4C3)cc2=O)CC1 [ODM-208, reference compound] | 85 | significantly inhibits
> 1700 | > 1000 | > 60 |  | Cn1c(CN2Cc3ccccc3C2)c(F)cc(C=CC2CCN(S(C)(=O)=O)CC2)c1=O [compound 113] |  | 
